LC50, LD50 and mortality data for 14 compounds are collected here from patent US4599362A, “2-aryl-ethyl ether derivatives and insecticidal and acaricidal agents containing said derivatives” (priority 1980, dated 1986).

One data set can be described thus: Test 8: Fish Toxicity. It counts as in vivo. The note with it: carp, water, carps, concentration at which 1/2 of the test fishes were killed, read-out: Fish Toxicity, TLm48. The procedure:
A water tank having a width of 60 cm, a length of 30 cm and a height of 40 cm was filled with water, and 10 yearling carps having a body length of about 5 cm were set free in the tank and adapted to the environment in the tank. A test compound was applied so that the concentration in water was 10, 1, or 0.1 ppm. After 48 hours, the numbers of killed and living carps were counted and the influences on the fishes were examined.

A short description of data set [1]: Test 9: Toxicity Test (acute oral, mice). Conditions: mouse, in vivo, po. The procedure: In the fish toxicity test, the test compound was dissolved in acetone to form a 1% solution, and a predetermined amount of the solution was used. In the mouse toxicity test, the test compound of the present invention was dissolved or suspended in corn oil, and a predetermined amount of the solution or suspension was used.
A predetermined amount of a solution or suspension of a test compound in corn oil was orally administered to male mice having a body weight of 19 to 23 g (0.2 ml per 10 g of the body weight). After 7 days, the number of killed mice was counted and the influences on the mice were examined.

Data set [2] concerns third-instar larvae of diamond back moth. Put plainly: Test 4: Effect on Diamond Back Moth. It counts as in vivo. The note with it: Plutella xylostella, 24 hours. The procedure: (§1) To a mixture of 20 parts of the compound of the present invention and 20 parts of Sorpol SM-200 (registered trademark for the product supplied by Toho Chemical Industrial Co., Ltd.) was added 60 parts of xylol, and the mixture was sufficiently blended. The obtained emulsifiable concentrate was diluted at a predetermined concentration with distilled water, and the obtained dilution was used.
Cabbage leaves were spread in a plastic cup, and 10 third-instar larvae of diamond back moth were set free in the cup.
A chemical dilution having a concentration of 100 or 20 ppm, prepared in the same manner as described in Test 1, was applied from an applicator at a rate of 3 ml per cup.
After scattering of the chemical dilution, the cup was covered, and after 24 hours, the numbers of killed and living larvae were counted and the mortality was calculated. The test was made on three cups and the average value was calculated.

The next data set has as its system green peach aphids. Put plainly: Test 5: Effect on green peach Aphid. It counts as in vivo. The note with it: Myzus persicae, 24 hours, mortality class, read-out: Insecticidal Activity. On the procedure:
as §1
Seedlings (having 3 to 4 leaves) of an eggplant grown on a pot were inoculated with green peach aphids and the insects were allowed to grow. The number of the insects was counted. A chemical dilution having a concentration of 100 ppm, prepared in the same manner as described in Test 1, was applied with a spray gun at a rate of 10 ml per pot. Then, the pot was placed in a glass green house. After 24 hours, the number of living insects was counted and the mortality was calculated.
The test was made on three pots, and the average value was calculated. In Table 6, mark "A" indicates a mortality higher than 95%, mark "B" indicates a mortality of 80 to 95%, mark "C" indicates a mortality of 50 to 80%, and mark "D" indicates a mortality lower than 50%.

The next data set concerns two-spotted spider mite. Put plainly: Test 6: Effect on Two-Spotted Spider mite adults. It counts as in vivo. Conditions: Tetranychus urticae; 500 ppm; adults; 24 hours; read-out: Mortality (%). On the procedure:
as §1
A kidney bean leaf disc perforated with a cork borer (15 mm in diameter) was placed on water-impreganated absorbent cotton (2 cm×2 cm), and 10 adults of two-spotted spider mite were set free. A chemical dilution having a concentration of 500 ppm was applied with an applicator in an amount of 3 ml.
The leaf disc-placed absorbent cotton was placed in a thermostat chamber maintained at 25° C. After 24 hours, the number of killed adults was counted and the mortality was calculated. The test was made on three leaf discs and the average value was calculated.

Another data set relates to German cockroach. Put plainly: Test 7: Effect on German Cockroach. The note with it: Blattella germanica, male adults, 24 hours, agonized and killed; for mortality at 10 mg/m2: 10 mg/m^2; for mortality at 50 mg/m2: 50 mg/m^2. It counts as in vivo. The procedure: The bottom face of a high Petri dish having a diameter of 9 cm and a height of 9 cm was treated with 50 or 10 mg/m^2 of a test compound and the dish was air-dried. In order to prevent the adults from escaping from the dish, the inner wall of the dish was treated with butter. Then, 10 male adults of German cockroach were set free in each dish, and the dish was placed in a thermostat chamber maintained at 25° C. After 24 hours, the number of agonized and killed adults was counted. The test was made on two dishes and the average value was calculated.

Data set [3] relates to resistant green rice leafhopper (collected at Nakagawara). In words: Test 3: Effect on Resistant Green Rice Leafhopper. In kind it is in vivo, Nephotettix cincticeps Uhler. Conditions: Nephotettix cincticeps, 24 h, read-out: Mortality (%) Green Rice Leafhopper Collected at Nakagawara. The method, boiled down: (§2)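 Rice seedlings (2–3 leaves) sprayed with emulsifiable-concentrate dilutions at 100 or 20 ppm, 3 ml per pot, air-dried, then infested with 10 female adults per pot. Mortality counted after 24 h and averaged over three pots.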

Data set [4] deals with sensitive green rice leafhopper (collected at Chigasaki). In words: Test 3: Effect on Sensitive Green Rice Leafhopper. It counts as in vivo. The note with it: Nephotettix cincticeps, female adults, 24 hours. The method, boiled down: as §2
Data set [5] concerns Second-instar and fifth-instar larvae of tobacco cutworm. Put plainly: Test 2: Tobacco Cutworm Larva Dipping Test. It counts as in vivo. On the procedure: as §1
A dilution having a chemical concentration of 100 or 20 ppm was prepared in the same manner as described in Test 1.
Second-instar and fifth-instar larvae of tobacco cutworm were dipped in the dilution for 5 seconds, and the excessive dilution was removed by a filter paper. Then, the larvae were set free in a plastic cup and an artificial diet was supplied thereto. The cup was allowed to stand still in a thermostat chamber maintained at 25° C. After 24 hours, the numbers of the killed and living larvae were counted and the mortality was calculated. The test was made on three cups and the result was expressed by an average value.

The mark [6] stands for this setting: 20 ppm, second-instar larvae, 24 hours, read-out: Mortality (%) Second-Instar Larvae.
Where [7] appears, read: 100 ppm, second-instar larvae, 24 hours, read-out: Mortality (%) Second-Instar Larvae.
[8] abbreviates: topical, 24 h, read-out: Mortality (%) Fifth-Instar Larvae.

Where two headings read alike, the source gives them in different places.

As to `CC(C)(COCc1cc(Oc2ccccc2)ccc1Cl)c1ccc(Cl)cc1` [Compound 7, 3-phenoxy-6-chlorobenzyl 2-(4-chlorophenyl)-2-methylpropyl ether], the LC50 at 48 h in the data set “Test 8: Fish Toxicity” is greater than 10 µg/mL. In data set [1], the LD50 at 168 h is greater than 500 mg/kg.
With `CCOc1ccc(C(C)(C)CSCc2ccc(F)c(Oc3ccccc3)c2)cc1Cl` [Compound 51], in [2], the mortality at 20 ppm came to 80% and the mortality at 100 ppm came to 100%. In the data set on green peach aphids, the mortality at 100 ppm was greater than 95%. Further, the mortality at 500 ppm in the data set with two-spotted spider mite was 90%. Also, in the data set on German cockroach, the mortality at 10 mg/m2 amounted to 100% and the mortality at 50 mg/m2 came to 100%. The compound also displayed an LD50 at 168 h in data set [1] greater than 500 mg/kg.
In data set [2], `CC(C)(COCc1ccc(F)c(Oc2ccccc2)c1)c1ccc(Cl)c(Cl)c1` [Compound 14, 3-Phenoxy-4-fluorobenzyl 2-(3,4-dichlorophenyl)-2-methylpropyl ether] showed a mortality at 20 ppm of 100% and a mortality at 100 ppm of 100%. Also, the mortality at 500 ppm in the data set with two-spotted spider mite was 100%. Further, the LC50 at 48 h in “Test 8: Fish Toxicity” was greater than 1 µg/mL.
On to `COc1ccc(C(C)(C)COCc2ccc(F)c(Oc3ccccc3)c2)cc1` [Compound 16, 3-Phenoxy-4-fluorobenzyl 2-(4-methoxyphenyl)-2-methylpropyl ether], for which, in [2], the mortality at 20 ppm was 80% and the mortality at 100 ppm was found to be 100%. In the data set with German cockroach, this compound showed a mortality at 10 mg/m2 of 90% and a mortality at 50 mg/m2 of 100%. The LC50 at 48 h in “Test 8: Fish Toxicity” is greater than 0.5 µg/mL.
In the case of `CC(C)(COCc1ccc(F)c(Oc2ccc(F)cc2)c1)c1ccc(Cl)c(Cl)c1` [Compound 24, 3-(4-Fluorophenoxy)-4-fluorobenzyl 2-(3,4-dichlorophenyl)-2-methylpropyl ether], in data set [2], the mortality at 20 ppm was 90% and the mortality at 100 ppm stood at 100%. Further, the LC50 at 48 h in the data set “Test 8: Fish Toxicity” is greater than 1 µg/mL.
In [2], `Cc1cccc(C(C)(C)COCc2ccc(F)c(Oc3ccccc3)c2)c1` [Compound 19, 3-phenoxy-4-fluorobenzyl 2-(3-methylphenyl)-2-methylpropylether] gave a mortality at 20 ppm of 100% and a mortality at 100 ppm of 100%. In the data set on German cockroach, this compound had a mortality at 10 mg/m2 of 90% and a mortality at 50 mg/m2 of 100%. Besides, in the data set “Test 8: Fish Toxicity”, the LC50 at 48 h is greater than 1 µg/mL.
As for `CC(C)(COCc1cc(Oc2ccccc2)ccc1Br)c1ccc(Cl)cc1` [Compound 26, 3-Phenoxy-6-bromobenzyl 2-(4-chlorophenyl)-2-methylpropyl ether], the LC50 at 48 h in the data set “Test 8: Fish Toxicity” was greater than 10 µg/mL. Further, in [1], the LD50 at 168 h is greater than 500 mg/kg.
Take `CC(C)(COCc1ccc(F)c(Oc2cccc(Cl)c2)c1)c1ccc(Cl)cc1` [Compound 9, 3-(3-Chlorophenoxy)-4-fluorobenzyl 2-(4-chlorophenyl)-2-methylpropyl ether]: the LC50 at 48 h in “Test 8: Fish Toxicity” is greater than 1 µg/mL. In addition, in data set [1], the LD50 at 168 h was greater than 500 mg/kg.
In the case of `COc1ccc(C(C)(C)COCc2ccc(F)c(Oc3ccc(F)cc3)c2)cc1` [Compound 5, 3-(4-Fluorophenoxy)-4-fluorobenzyl 2-(4-methoxyphenyl)-2-methylpropyl ether], in [3], the mortality at 20 ppm was 100% and the mortality at 100 ppm stood at 100%. Also, in data set [4], the mortality at 20 ppm turned out to be 100% and the mortality at 100 ppm was found to be 100%. Further, the LC50 at 48 h in the data set “Test 8: Fish Toxicity” was greater than 1 µg/mL. Further, the LD50 at 168 h in [1] was greater than 500 mg/kg.
Turning to `CCOc1ccc(C(C)(C)COCc2ccc(F)c(Oc3ccccc3)c2)cc1C` [Compound 67], the mortality at 20 ppm in data set [5] (setting [6]), in data set [5] (setting [8]), in [3], in data set [4] and in [2] was 100% throughout. The mortality at 100 ppm in data set [5] (setting [7]) is 100%; in data set [5] (setting [8]), 100%; in [3], 100%; in data set [4], 100%; in [2] it was 100%; in the data set with green peach aphids it was greater than 95%. Also, the mortality at 500 ppm in the data set with two-spotted spider mite was determined as 100%. In the data set on German cockroach, this compound had a mortality at 10 mg/m2 of 100%. In the data set on German cockroach, this compound registered a mortality at 50 mg/m2 of 100%.
For the compound `CCOc1ccc(C(C)(C)COCc2ccc(F)c(Oc3ccccc3)c2)cc1` [Compound 36, 3-Phenoxy-4-fluorobenzyl 2-(4-ethoxyphenyl)-2-methylpropyl ether], the mortality at 20 ppm in data set [5] (setting [6]), in data set [5] (setting [8]), in data set [3], in data set [4] and in data set [2] was 100% in each case. The mortality at 100 ppm in data set [5] (setting [7]) was 100%; in [5] (setting [8]), 100%; in [3] it was 100%; in data set [4], 100%; in data set [2], 100%; with green peach aphids it was greater than 95%. In addition, the mortality at 10 mg/m2 in the data set with German cockroach was 100%. In the data set on German cockroach, this compound registered a mortality at 50 mg/m2 of 100%. The LD50 at 168 h in [1] is greater than 500 mg/kg.
In data set [2], `CC(C)Sc1ccc(C(C)(C)COCc2ccc(F)c(Oc3ccccc3)c2)cc1` [Compound 54, 3-Phenoxy-4-fluorobenzyl 2-(4-isopropylthiophenyl)-2-methylpropyl ether] registered a mortality at 20 ppm of 100% and a mortality at 100 ppm of 100%. Besides, the mortality at 100 ppm in the data set on green peach aphids is greater than 95%. For the same compound, the mortality at 500 ppm in the data set with two-spotted spider mite was found to be 100%. Moreover, in the data set on German cockroach, the mortality at 10 mg/m2 amounted to 100% and the mortality at 50 mg/m2 was 100%. This compound also registered an LD50 at 168 h in data set [1] greater than 500 mg/kg.
With `Cc1ccc(C(C)(C)COCc2cc(Oc3ccccc3)ccc2Cl)cc1` [Compound 31, 3-Phenoxy-6-chlorobenzyl 2-(4-methylphenyl)-2-methylpropyl ether], in the data set “Test 8: Fish Toxicity”, the LC50 at 48 h is greater than 10 µg/mL. This compound gave an LD50 at 168 h in data set [1] greater than 500 mg/kg.
Regarding `CC(C)(COCc1ccc(F)c(Oc2ccccc2)c1)c1ccc(OC2CCCCC2)cc1` [Compound 46, 3-Phenoxy-4-fluorobenzyl 2-(4-cyclohexyloxyphenyl)-2-methylpropyl ether], the mortality at 20 ppm in [3] and in data set [4] was 100% each time. Moreover, the mortality at 100 ppm in [3] and in data set [4] was 100% throughout. Further, the mortality at 500 ppm with two-spotted spider mite came out at 100%. The LC50 at 48 h in “Test 8: Fish Toxicity” was greater than 1 µg/mL.

Broadly, the LD50 is the dose at which mortality reaches 50%. A higher LD50 goes with lower toxicity.
